Measured values reported in patent US9303016B2, “Derivatives of aza adamantane and uses thereof” (CONNEXIOS LIFE SCIENCES PVT. LTD., priority 2011, dated 2016).

Target: T1, human full length HSD11β1 (Homo sapiens, UniProt P28845)
T1 construct: transient expression of human full length HSD11β1 expression vector; host or cells: CHO cells, transient transfection
Experiment: In Vitro HSD11β1 Inhibition Assay
Type: cell-based
Details: CHO cells transiently expressing human HSD11β1; 200 nM cortisone+500 uM NADPH overnight; cortisone to cortisol by LC/MS-MS; read-out: 11βHSD1 (IC50)
Procedure: In Vitro HSD11β1 Inhibition Assay:
CHO cells were maintained in Dulbecco's modified Eagle's medium/nutrient mixture F-12 containing 5% fetal bovine serum (v/v) and 2 mM glutamine. Cells were cultured at 37° C. with 5% CO2. For transient expression of human full length HSD11β1 expression vector (OriGene Technologies), cells were seeded at a density of 2×10^5 cells/well in a 6-well plate. Transfection was done using Turbofectin8 reagent (OriGene Technologies), according to the protocol provided with the reagent. After 24 hours post-transfection, cells were trypsinized and pooled together before they were re-seeding to 96-well plate at a density of 40000 cells/well. 24 hours after re-seeding, cells were incubated with 200 nM cortisone+500 uM NADPH (or along with small molecule inhibitors) overnight. The enzymatic activity or inhibition of enzyme activity was measured by estimating the conversion of cortisone to cortisol by LC/MS-MS method. The IC50 in nM was calculated from a 8 point log scale of concentration versus inhibition.

T1 sequence (P28845 whole entry): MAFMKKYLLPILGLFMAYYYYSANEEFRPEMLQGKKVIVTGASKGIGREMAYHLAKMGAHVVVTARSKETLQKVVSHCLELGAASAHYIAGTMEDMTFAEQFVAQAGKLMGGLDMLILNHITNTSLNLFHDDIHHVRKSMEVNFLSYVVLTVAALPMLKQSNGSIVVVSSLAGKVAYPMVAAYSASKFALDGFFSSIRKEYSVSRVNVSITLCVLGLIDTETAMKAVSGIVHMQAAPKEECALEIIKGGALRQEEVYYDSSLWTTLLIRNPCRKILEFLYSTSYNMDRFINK

Row | IC50 [nM] | Structure (SMILES)
1 | 200 to 250 | COc1ccc2[nH]cc(C(C)CC(=O)N3C4CC5CC3CC(O)(C5)C4)c2c1C1CC1 (stereo not shown) [Compound 171, 3-(4-cyclopropyl-5-methoxy-1H-indol-3-yl)-1-(5-hydroxy-2-azatricyclo[3.3.1.1^3,7]dec-2-yl)butan-1-one]
2 | > 250 | CC(CC(=O)N1C2CC3CC1CC(C(=O)O)(C3)C2)c1c[nH]c2ncccc12 (stereo not shown) [Compound 91, 2-[3-(1H-pyrrolo[2,3-b]pyridin-3-yl)butanoyl]-2-azatricyclo[3.3.1.1^3,7]decane-5-carboxylic acid]
3 | > 250 | Cc1ccc2[nH]cc(C(C)CC(=O)N3C4CC5CC3CC(O)(C5)C4)c2c1Cl (single isomer, unassigned) [Compound 174, 3-(4-chloro-5-methyl-1H-indol-3-yl)-1-(5-hydroxy-2-azatricyclo[3.3.1.1^3,7]dec-2-yl)butan-1-one]
4 | < 100 | Cc1cccc2[nH]cc(C(C)CC(=O)N3C4CC5CC3CC(O)(C5)C4)c12 (single isomer, unassigned) [Example 49, 1-(5-hydroxy-2-azatricyclo[3.3.1.1^3,7]dec-2-yl)-3-(4-methyl-1H-indol-3-yl)butan-1-one]
5 | < 100 | COc1cc2c(C(C)CC(=O)N3C4CC5CC3CC(O)(C5)C4)c[nH]c2cc1Cl (single isomer, unassigned) [Compound 130, 3-(6-chloro-5-methoxy-1H-indol-3-yl)-1-(5-hydroxy-2-azatricyclo[3.3.1.1^3,7]dec-2-yl)butan-1-one]
6 | < 100 | COc1ccc2[nH]cc(C(C)CC(=O)N3C4CC5CC(C4)CC3C5)c2c1 (stereo not shown) [Compound 226, 1-(2-azaadamantan-2-yl)-3-(5-methoxy-1H-indol-3-yl)butan-1-one]
7 | > 250 | CC(CC(=O)N1C2CC3CC1CC(O)(C3)C2)c1c[nH]c2ncc(C3CC3)c(C3CC3)c12 (stereo not shown) [Compound 201, 3-(4,5-dicyclopropyl-1H-pyrrolo[2,3-b]pyridin-3-yl)-1-(5-hydroxy-2-azatricyclo[3.3.1.1^3,7]dec-2-yl)butan-1-one]
8 | > 250 | CC(CC(=O)N1C2CC3CC1CC(O)(C3)C2)c1c[nH]c2ccccc12 (single isomer, unassigned) [Example 22, 1-(5-hydroxy-2-azatricyclo[3.3.1.1^3,7]dec-2-yl)-3-(1H-indol-3-yl)butan-1-one]
9 | 150 to 200 | CC(CC(=O)N1C2CC3CC1CC(O)(C3)C2)c1c[nH]c2nccc(Cl)c12 (stereo not shown) [Compound 87, 3-(4-chloro-1H-pyrrolo[2,3-b]pyridin-3-yl)-1-(5-hydroxy-2-azatricyclo[3.3.1.1^3,7]dec-2-yl)butan-1-one]
10 | > 250 | O=C(CC(c1ccc(F)cc1)c1c[nH]c2ccccc12)N1C2CC3CC1CC(O)(C3)C2 (single isomer, unassigned) [Compound 81, 3-(4-fluorophenyl)-1-(5-hydroxy-2-azatricyclo[3.3.1.1^3,7]dec-2-yl)-3-(1H-indol-3-yl)propan-1-one]
11 | < 100 | O=C(CC(c1cccs1)c1c[nH]c2cccc(F)c12)N1C2CC3CC1CC(O)(C3)C2 (stereo not shown) [Compound 127, 3-(4-fluoro-1H-indol-3-yl)-1-(5-hydroxy-2-azatricyclo[3.3.1.1^3,7]dec-2-yl)-3-(thiophen-2-yl)propan-1-one]
12 | > 250 | Cc1cccc2c1nnn2C(CC(=O)N1C2CC3CC1CC(O)(C3)C2)C(C)C (stereo not shown) [Compound 131, 1-(5-hydroxy-2-azatricyclo[3.3.1.1^3,7]dec-2-yl)-4-methyl-3-(4-methyl-1H-benzotriazol-1-yl)pentan-1-one]
13 | > 250 | CC(CC(=O)N1C2CC3CC1CC(C(=O)O)(C3)C2)c1c[nH]c2ccc(-c3ccccc3)cc12 (stereo not shown) [Compound 142, 2-[3-(5-phenyl-1H-indol-3-yl)butanoyl]-2-azatricyclo[3.3.1.1^3,7]decane-5-carboxylic acid]
14 | 150 to 200 | COC12CC3CC(C1)N(C(=O)CC(C)c1c[nH]c4cccc(F)c14)C(C3)C2 (single isomer, unassigned) [Example 30, 3-(4-fluoro-1H-indol-3-yl)-1-(5-methoxy-2-azatricyclo[3.3.1.1^3,7]dec-2-yl)butan-1-one]
15 | > 250 | CC(CC(=O)N1C2CC3CC1CC(OCC1CC1)(C3)C2)c1c[nH]c2cccc(F)c12 (stereo not shown) [Example 33, 1-[5-(cyclopropylmethoxy)-2-azatricyclo[3.3.1.1^3,7]dec-2-yl]-3-(4-fluoro-1H-indol-3-yl)butan-1-one]
16 | 200 to 250 | CC(CC(=O)N1C2CC3CC1CC(O)(C3)C2)c1c[nH]c2cccc(Oc3ccc(Cl)cc3)c12 (stereo not shown) [Example 44, 3-[4-(4-chlorophenoxy)-1H-indol-3-yl]-1-(5-hydroxy-2-azatricyclo[3.3.1.1^3,7]dec-2-yl)butan-1-one]
17 | > 250 | O=C(CCc1c[nH]c2ccc(F)cc12)N1C2CC3CC(C2)CC1C3 [Example 7, 1-(2-azatricyclo[3.3.1.1^3,7]dec-2-yl)-3-(5-fluoro-1H-indol-3-yl)propan-1-one]

Row | IC50 [nM] | Structure (SMILES)
18 | < 100 | O=C(CC(c1ccc(F)cc1)c1c[nH]c2ccccc12)N1C2CC3CC1CC(O)(C3)C2 (stereo not shown) [Compound 73, 3-(4-fluorophenyl)-1-(5-hydroxy-2-azatricyclo[3.3.1.1^3,7]dec-2-yl)-3-(1H-indol-3-yl)propan-1-one]
19 | < 100 | CC(CC(=O)N1C2CC3CC1CC(O)(C3)C2)c1c[nH]c2cccc(C3CC3)c12 (stereo not shown) [Example 41]
20 | > 250 | O=C(CC(c1ccc(Cl)cc1)c1c[nH]c2ccccc12)N1C2CC3CC1CC(O)(C3)C2 (stereo not shown) [Example 71, 3-(4-chlorophenyl)-1-(5-hydroxy-2-azatricyclo[3.3.1.1^3,7]dec-2-yl)-3-(1H-indol-3-yl)propan-1-one]
21 | 100 to 150 | Cc1ccc2[nH]cc(C(C)CC(=O)N3C4CC5CC3CC(O)(C5)C4)c2c1C1CC1 (stereo not shown) [Compound 160, 3-(4-cyclopropyl-5-methyl-1H-indol-3-yl)-1-(5-hydroxy-2-azatricyclo[3.3.1.1^3,7]dec-2-yl)butan-1-one]
22 | > 250 | CC(C)C(CC(=O)N1C2CC3CC1CC(O)(C3)C2)c1c[nH]c2ncccc12 (stereo not shown) [Compound 90, 1-(5-hydroxy-2-azatricyclo[3.3.1.1^3,7]dec-2-yl)-4-methyl-3-(1H-pyrrolo[2,3-b]pyridin-3-yl)pentan-1-one]
23 | 100 to 150 | CC(CC(=O)N1C2CC3CC1CC(O)(C3)C2)c1cn(C)c2cccc(Cl)c12 (stereo not shown) [Compound 207, 3-(4-chloro-1-methyl-1H-indol-3-yl)-1-(5-hydroxy-2-azatricyclo[3.3.1.1^3,7]dec-2-yl)butan-1-one]
24 | > 250 | CC(CC(=O)N1C2CC3CC1CC(C(=O)O)(C3)C2)c1c[nH]c2cccc(C3CC3)c12 (single isomer, unassigned) [Example 53, 2-[3-(4-cyclopropyl-1H-indol-3-yl)butanoyl]-2-azatricyclo[3.3.1.1^3,7]decane-5-carboxylic acid]
25 | > 250 | CC(CC(=O)N1C2CC3CC1CC(C#N)(C3)C2)c1nc2cc(Cl)ccc2s1 (stereo not shown) [Compound 191, 2-[3-(5-chloro-1,3-benzothiazol-2-yl)butanoyl]-2-azatricyclo[3.3.1.1^3,7]decane-5-carbonitrile]
26 | 100 to 150 | Cc1ccc2[nH]cc(C(C)CC(=O)N3C4CC5CC3CC(O)(C5)C4)c2c1C (stereo not shown) [Compound 164, 3-(4,5-dimethyl-1H-indol-3-yl)-1-(5-hydroxy-2-azatricyclo[3.3.1.1^3,7]dec-2-yl)butan-1-one]
27 | 100 to 150 | CCC(CC(=O)N1C2CC3CC1CC(O)(C3)C2)c1c[nH]c2ccccc12 (stereo not shown) [Example 64, 1-(5-hydroxy-2-azatricyclo[3.3.1.1^3,7]dec-2-yl)-3-(1H-indol-3-yl)pentan-1-one]
28 | > 250 | CC(CC(=O)N1C2CC3CC1CC(C(=O)O)(C3)C2)c1c[nH]c2cccc(-c3ccc(F)cc3)c12 (stereo not shown) [Example 62, 2-{3-[4-(4-fluorophenyl)-1H-indol-3-yl]butanoyl}-2-azatricyclo[3.3.1.1^3,7]decane-5-carboxylic acid]
29 | > 250 | CC(CC(=O)N1C2CC3CC1CC(O)(C3)C2)c1nc2c(Cl)cccc2s1 (stereo not shown) [Compound 120, 3-(4-chloro-1,3-benzothiazol-2-yl)-1-(5-hydroxy-2-azatricyclo[3.3.1.1^3,7]dec-2-yl)butan-1-one]
30 | 200 to 250 | CC(CC(=O)N1C2CC3CC1CC(O)(C3)C2)c1c[nH]c2ccc(F)cc12 (stereo not shown) [Compound 75, 3-(5-fluoro-1H-indol-3-yl)-1-(5-hydroxy-2-azatricyclo[3.3.1.1^3,7]dec-2-yl)butan-1-one]
31 | > 250 | CC(CC(=O)N1C2CC3CC1CC(O)(C3)C2)c1c[nH]c2cccc(C3CC3)c12 (single isomer, unassigned) [Compound 103, 3-(4-cyclopropyl-1H-indol-3-yl)-1-(5-hydroxy-2-azatricyclo[3.3.1.1^3,7]dec-2-yl)butan-1-one]
32 | > 250 | CC(C)Oc1cccc2[nH]cc(C(C)CC(=O)N3C4CC5CC(C4)CC3C5)c12 (stereo not shown) [Compound 181, 1-(2-azatricyclo[3.3.1.1^3,7]dec-2-yl)-3-[4-(propan-2-yloxy)-1H-indol-3-yl]butan-1-one]
33 | > 250 | CC(CC(=O)N1C2CC3CC1CC(C#N)(C3)C2)c1nc2c(Cl)cccc2s1 (stereo not shown) [Compound 123, 2-[3-(4-chloro-1,3-benzothiazol-2-yl)butanoyl]-2-azatricyclo[3.3.1.1^3,7]decane-5-carbonitrile]
34 | > 250 | CC(CC(=O)N1C2CC3CC1CC(C#N)(C3)C2)c1nc2c(Cl)cccc2s1 (single isomer, unassigned) [Compound 124, 2-[3-(4-chloro-1,3-benzothiazol-2-yl)butanoyl]-2-azatricyclo[3.3.1.1^3,7]decane-5-carbonitrile]
